Reference: patent US20230255935A1, “ANTI-VIRAL COMPOUNDS AND METHODS FOR SCREENING SAME AND TREATING VIRAL INFECTIONS” (priority 2020, published 2023)

Biological target: full-length MERS-CoV N protein (Middle East respiratory syndrome-related coronavirus, UniProt K9N4V7)

Structure (SMILES): CN(C)Cc1c[nH]c2ccc(OCc3ccccc3)cc12 [PSX-01, 5-benzyloxygramine]
- radius of gyration (Rg) of N protein: 65
